Measurements from US20100040630A1, “METHODS AND COMPOSITIONS FOR TREATING BONE LOSS” (priority 2008, published 2010).

Key:
[1] = test system: early (<3 yrs), active, MTX-naive RA patients; experiment: Subanalysis of Study J: DXR-MCI hand bone loss by clinical response (DAS28 subgroups); type: in vivo, human; settings: for Mean % DXR-MCI change / median % DXR-MCI change: baseline to 52 weeks
Protocol: As described above, Study J compared the efficacy of adalimumab plus MTX vs. MTX alone and adalimumab alone in early (<3 yrs), active, MTX-naive RA patients. The subanalysis described herein involved the MTX monotherapy and the combination therapy groups. Hand bone loss was assessed by digital X-ray radiogrammetry metacarpal cortical index (DXR-MCI), calculated from digitized radiographs (DXR, Sectra, Sweden). […] MCI percentage change from baseline to 52 weeks was evaluated for patients with different clinical response. Disease activity was assessed by DAS28 scores at 52 weeks in 4 subgroups: Remission=DAS28<2.60; Low disease activity=DAS28 2.61-3.20; Moderate disease activity=DAS28 3.21-5.20; and high disease activity=DAS28>5.20. Non-parametric group comparisons were performed.

[2] = test system: patients with early rheumatoid arthritis; experiment: Study J: cortical hand bone loss by digital X-ray radiogrammetry metacarpal cortical index (DXR-MCI); type: in vivo, human; settings: for median percentage DXR-MCI change: change from baseline
Protocol: Generally, the study included 768 patients with active RA for <3 years who were naïve to MTX. Clinical data collections and radiographic examinations of hands were performed at baseline, and after 26, 52 and 104 weeks of therapy. Hand bone loss was assessed by digital X-ray radiogrammetry (DXR), primarily as metacarpal cortical index (MCI), on the same radiographs used for joint damage assessments.
(§1) The radiographic and clinical data from this 2-year, multi-centre, double-blind, randomised controlled study (Study J) was previously been described in detail (see Breedveld et al. (2006) Arthritis Rheum 54:26-37). The efficacy and safety of adalimumab plus MTX was compared with adalimumab monotherapy and with MTX monotherapy for 799 adult patients with early (<3 years), aggressive RA (mean erosion score of approximately 12 Sharp units, estimated annual TSS progression of approximately 27 Sharp units) who previously had not been treated with MTX, cyclophosphamide, cyclosporine, azathioprin or more than 2 other DMARDs (Breedveld et al. (2006), supra). […] Radiographs from hands and feet were scored according to a modified Sharp score (range 0-398) (Breedveld et al. (2006), supra).
(§2) Digital X-ray radiogrammetry (DXR) (Sectra, Linkoping, Sweden) was used to measure hand bone mineral density (BMD) and metacarpal cortical index (MCI) on the same digitized hand X-rays used for assessment of radiographic joint damage. DXR is a computer version of the traditional radiogrammetry technique,[13] and have improved the method and its precision substantially. DXR has been described in detail.[14,15,16] On hand radiographs, the computer automatically recognizes regions of interest (ROI) around the narrowest part of the second, third, and fourth metacarpal bone and measures cortical thickness, bone width, and porosity 118 times per cm. DXR-BMD is defined as: c X VPAcomb X (1-p), where c is a constant (determined by the result that DXR-BMD, on average, is equal to the mid-distal forearm region of the Hologic QDR-2000 device); VPA is volume per area; and p is porosity. DXR-MCI is defined as the combined cortical thickness divided by the outer cortical diameter and is a relative bone measure independent of bone size, bone length, and image capture setting.[16.17] Both DXR-BMD and DXR-MCI provide substantial degrees of precision.[17]
DXR-BMD was intended to be the main outcome measure in this study. However, many radiographs could not be analysed for BMD because of unknown image resolution. Generally, the equation for DXR-BMD is based on volume per area and requires a defined or known resolution, since a distance in a digitised radiograph cannot be measured when the resolution is unknown. Thus, DXR-MCI, which is a relative measure independent of image resolution, was used as the primary outcome measure. […] [19]
(§3) To avoid bias regarding dominant vs. non-dominant hand and to achieve better accuracy, mean value measurements from both hands were used.[10] If the radiograph from one hand could not be analysed or were missing, the radiograph from the available hand for all analyses at the different time points was used.
(§4) Since the data were not normally distributed, non-parametric analyses were conducted. No imputations were performed. Baseline values were compared between treatment groups with the Kruskall-Wallis method for continuous variables and with the chi-squared method for categorical variables. Comparisons of changes in hand BMD were conducted following methodologies parallel and similar to ones employed in the original Study J. Two groups were compared in a hierarchical order with the Mann-Whitney U test (i.e., two-sided comparison of the combination group vs. MTX, followed by two-sided comparisons between the monotherapy treatment arms, and finally two-sided comparisons between the adalimumab monotherapy and the combination group). Each pair-wise comparison was completed only if the previous comparison was statistically significant. […]

[3] = test system: patients with early rheumatoid arthritis; experiment: Study J: radiographic joint damage, modified Sharp score; type: in vivo, human
From the text: as §1

[4] = test system: patients with early rheumatoid arthritis; experiment: Study J: hand bone mineral density by digital X-ray radiogrammetry (DXR-BMD); type: in vivo, human
From the text: as §1, §2
For comparison, results for DXR-BMD are also provided. All images of unknown resolution were analyzed by assuming 254 dpi (the scanning resolution for the radiographs before scoring). Several of the radiographs were, however, clearly of a resolution other than 254 dpi, most likely because they had been printed in non-true size before scanning. All available images from baseline were analyzed, as well as 26, 52 and 104 weeks, by DXR-BMD and calculated mean metacarpal width. Based on analyses from other studies with a controlled resolution, [19] a deviation from baseline width greater than 2% was believed to likely indicate an incorrect value. With this 2% value as a cut-off, 23% of the radiographs were excluded from further DXR-BMD analyses. The flow chart in FIG. 1 illustrates the patients who were included in the DXR-MCI and DXR-BMD analyses.
as §3
as §4, with “significant. Bone loss over time was expressed as a negative value.” for “significant.”

RA = settings: 7.5 mg daily, compared with placebo; cited from earlier work
RA patients = RA patients receiving infliximab; cited from earlier work
[5] = High disease activity (DAS28>5.20)
[6] = Low disease activity (DAS28 2.61-3.20)
[7] = Moderate disease activity (DAS28 3.21-5.20)

| Molecule | median percentage DXR-MCI change ([2]; 26 weeks) | median percentage DXR-MCI change ([2]; 52 weeks) | median percentage DXR-MCI change ([2]; 104 weeks) | mean radiographic change in the modified Sharp score ([3]; 26 weeks) | median radiographic change in the modified Sharp score ([3]; 26 weeks) | mean radiographic change in the modified Sharp score ([3]; 52 weeks) | median radiographic change in the modified Sharp score ([3]; 52 weeks) | mean radiographic change in the modified Sharp score ([3]; 104 weeks) | median radiographic change in the modified Sharp score ([3]; 104 weeks) | median DXR-BMD percentage change ([4]; 26 weeks) | median DXR-BMD percentage change ([4]; 52 weeks) | median DXR-BMD percentage change ([4]; 104 weeks) | further results |
| --- | --- | --- | --- | --- | --- | --- | --- | --- | --- | --- | --- | --- | --- |
| CN(Cc1cnc2nc(N)nc(N)c2n1)c1ccc(C(=O)N[C@@H](CCC(=O)O)C(=O)O)cc1 [MTX, methotrexate] | −1.42% | −2.87% | −4.62% | 3.4 units | 1.0 units | 5.1 units | 2.0 units | 6.4 units | 2.0 units | −1.20% | −1.86% | −3.58% | difference in bone loss among remission, low, moderate and high disease activity subgroups (in words) ([1]; 52 weeks): numerical differences; DXR-MCI percentage change ([1]; 52 weeks, pooled subgroup moderate and high disease activity (DAS28)): −4.65%; Mean % DXR-MCI change [1, 5]: −4.64%; median % DXR-MCI change [1, 5]: −3.02%; Mean % DXR-MCI change [1, 6]: −2.98%; median % DXR-MCI change [1, 6]: −2.20%; Mean % DXR-MCI change [1, 7]: −4.65%; median % DXR-MCI change [1, 7]: −3.33%; Mean % DXR-MCI change ([1]; Remission (DAS28<2.60)): −2.99%; median % DXR-MCI change ([1]; Remission (DAS28<2.60)): −2.14% |
| C[C@]12C=CC(=O)C=C1CC[C@@H]1[C@@H]2[C@@H](O)C[C@@]2(C)[C@H]1CC[C@]2(O)C(=O)CO [prednisolone] |  |  |  |  |  |  |  |  |  |  |  |  | rate of hand bone loss (in words) (RA): significantly reduce; rate of radiographic joint damage (in words) (RA): significantly reduce |
| adalimumab | −1.33% | −2.45% | −4.03% | 2.1 units | 0.5 units | 3.3 units | 0.5 units | 4.8 units | 1.0 units | −0.96% | −1.97% | −2.40% | hand bone loss in relation to clinically assessed disease activity (in words) ([1]; 52 weeks, DAS28 subgroups): reduces hand bone loss independent of clinically assessed disease activity; effect on hand bone loss (in words) ([2]; early RA, Study J): protected against hand bone loss |
| infliximab |  |  |  |  |  |  |  |  |  |  |  |  | bone loss in hip and spine (in words) (RA patients): arrested; hand bone loss (in words) (RA patients): hand bone loss was not halted |
